Activity calls are given as the source filed them. The calls are words filed in the database; no cut-off is given here.

Assay type in all cases: functional
Assay [1] has as its system Botrytis cinerea. Briefly: In vitro antifungal activity against Botryotinia fuckeliana assessed as inhibition at 0.1 %.
In assay [2] the test system is Agrobacterium tumefaciens. Nature of the assay: In vivo antibacterial activity against Agrobacterium tumefaciens infected carrots assessed as effective at 0.01%.
Assay [3] concerns Xanthomonas campestris pv. campestris. Nature of the assay: In vitro antibacterial activity against Xanthomonas campestris pv. campestris KF2 assessed as inhibition at 0.1 %.
Assay [4] concerns Agrobacterium sp. Briefly: In vitro antibacterial activity against Agrobacterium radiobacter pv. tumefaciens assessed as inhibition at 0.1 %.
The subject of assay [5] is Xanthomonas euvesicatoria. Briefly: In vitro antibacterial activity against Xanthomonas euvesicatoria P-2092 assessed as inhibition at 0.1 %.
Assay [6] deals with Xanthomonas phaseoli pv. phaseoli. Nature of the assay: In vitro antibacterial activity against Xanthomonas campestris pv. phaseoli assessed as inhibition at 0.1 %.
The subject of assay [7] is Pseudomonas savastanoi pv. phaseolicola. Briefly: In vitro antibacterial activity against Pseudomonas syringae pv. phaseolicola E81 assessed as inhibition at 0.1 %.
Assay [8] concerns Pseudomonas viridiflava. Nature of the assay: In vitro antibacterial activity against Pseudomonas viridiflava 8 assessed as inhibition at 0.1 %.
Assay [9] deals with Pseudomonas savastanoi pv. glycinea. Nature of the assay: In vitro antibacterial activity against Pseudomonas syringae pv. glycinea S1 assessed as inhibition at 0.1 %.
Assay [10] concerns Alternaria alternata. Briefly: In vivo antifungal activity against Alternaria tenuis. The arrangement: concentration or dose not given beside the values.

With `CCCCCCn1c(N)nc2ccccc21`, the “diameter of the inhibition zone (DIZ)” value in [1] is 3 cm. Besides, the Efficacy in [2] is listed as 30%.

Turning to `CCn1c(/N=C/c2ccc([N+](=O)[O-])o2)nc2ccccc21`, the “diameter of the inhibition zone (DIZ)” value came to 3 cm in assay [3], 3 cm in [4], 3 cm in [1] and 1 cm in assay [5]. Moreover, in assay [2], the Efficacy is given as 70%.

Regarding `Cc1cc2ncn(Cc3ccc(Cl)cc3)c2cc1C`, the inhibition entry in assay [6], in assay [7], in [8], in [9] and in assay [1] was “inactive” throughout. Further, the “diameter of the inhibition zone (DIZ)” value in assay [3] and in [5] was 1 cm each time. Also, the Efficacy in [2] was 30%.

On to `COc1cccc(Cn2c(N)nc3cc(C)c(C)cc32)c1`, for which the Efficacy in [10] was found to be 100%.

For the compound `CCCCn1c(N)nc2ccccc21`, the “diameter of the inhibition zone (DIZ)” value in assay [3], in assay [4], in assay [1] and in [5] was 3 cm throughout. Also, the values for the Efficacy in assay [2] and in [10] were 30% and 50%, respectively.

Turning to `Cc1cccc(Cn2c(N)nc3ccccc32)c1`, the “diameter of the inhibition zone (DIZ)” value in assay [3] turned out to be 3 cm; in assay [4] it was 2 cm; in [5], 3 cm. Also, the Efficacy in assay [10] was 100%.

Take `CCCCn1c(N)nc2cc(C)c(C)cc21`: the “diameter of the inhibition zone (DIZ)” value in assay [3] is given as 2 cm; in assay [4], 3 cm; in assay [5], 2 cm. Further, the Efficacy in assay [10] was determined as 100%.

`Nc1nc2ccccc2n1Cc1cccc(Cl)c1`: the “diameter of the inhibition zone (DIZ)” value was determined as 3 cm in assay [6]; 3 cm in [8]; 3 cm in assay [3]; 2 cm in assay [9]; 3 cm in [5]. For the same compound, the inhibition result in [7] and in assay [1] was “inactive” throughout. Also, the Efficacy in [10] amounted to 50%.

For the compound `O=[N+]([O-])c1ccc(/C=N/c2nc3ccccc3n2Cc2ccccc2Cl)o1`, the inhibition entry in assay [6], in [8], in assay [3] and in assay [5] was “inactive” each time. The figures for the “diameter of the inhibition zone (DIZ)” value in [7], in assay [9] and in assay [1] were 1 cm, 3 cm and 1 cm, respectively. For the same compound, the Efficacy in assay [2] amounted to 70%.

For `CCCCCCn1c(/N=C/c2ccc([N+](=O)[O-])o2)nc2ccccc21`, the “diameter of the inhibition zone (DIZ)” value worked out at 2 cm in [3], 3 cm in assay [4] and 2 cm in assay [5]. Also, the Efficacy in assay [2] was 70%.

As for `Cc1cc2ncn(Cc3ccccc3Cl)c2cc1C`, the inhibition result in [6], in [8] and in [5] was “inactive” throughout. Further, the “diameter of the inhibition zone (DIZ)” value in assay [7], in assay [3], in [9] and in assay [1] was 1 cm in each case. For the same compound, the Efficacy in assay [10] is on record as 50%.

Turning to `Cc1cc2ncn(Cc3cccc(F)c3)c2cc1C`, the “diameter of the inhibition zone (DIZ)” value in assay [3], in assay [4] and in [5] was 3 cm each time. Further, the Efficacy worked out at 70% in [2] and 50% in [10].

On to `COc1cccc(Cn2c(N)nc3ccccc32)c1`, for which the “diameter of the inhibition zone (DIZ)” value in [3], in [4] and in assay [5] was 3 cm each time. The Efficacy in assay [10] turned out to be 100%.

With `O=[N+]([O-])c1ccc(/C=N/c2nc3ccccc3n2Cc2cccc(Cl)c2)o1`, the inhibition result in assay [6], in assay [7], in assay [8] and in assay [3] was “inactive” each time. Further, the “diameter of the inhibition zone (DIZ)” value stood at 1 cm in [9], 1 cm in assay [1] and 3 cm in [5]. Also, the Efficacy in [2] was 100%.

With `Cc1cc2nc(/N=C/c3ccc([N+](=O)[O-])o3)n(Cc3ccc(Cl)cc3)c2cc1C`, the “diameter of the inhibition zone (DIZ)” value in assay [6] is on record as 3 cm; in [7], 2 cm; in assay [8], 1 cm; in assay [3], 1 cm; in assay [9] it was 2 cm; in assay [1], 3 cm. In [5], the “diameter of the inhibition zone (DIZ)” value stood at 1 cm. Moreover, the Efficacy in [2] was found to be 70%.

As to `Cc1ccc(Cn2c(/N=C/c3ccc([N+](=O)[O-])o3)nc3ccccc32)cc1`, the inhibition entry in assay [6], in assay [7], in assay [8], in [3] and in assay [5] was “inactive” each time. In addition, the “diameter of the inhibition zone (DIZ)” value in [9] and in [1] was 1 cm in each case. Further, the Efficacy in assay [2] is given as 70%.

Turning to `CCCCn1c(/N=C/c2ccc([N+](=O)[O-])o2)nc2ccccc21`, the “diameter of the inhibition zone (DIZ)” value came to 3 cm in assay [3], 3 cm in [4], 3 cm in [1] and 1 cm in assay [5]. Besides, in assay [2], the Efficacy came out at 70%.
